Here are results for 13 compounds from patent US8871753B2, “Macrocyclic compounds and their use as kinase inhibitors” (Incyte Corporation, priority 2008, dated 2014).

Counter-ions that a name gives are not always drawn. Like-named read-outs stand apart in the source and are kept apart here. Some results are limits rather than exact numbers.

The target of data set [1] is T1, Recombinant Human Anaplastic Lymphoma Kinase (Homo sapiens, UniProt Q9UM73).
T1 construct: purchased Invitrogen, Carlsbad, Calif
Put plainly: ALK HTRF kinase assay. It counts as biochemical. Put shortly: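 Recombinant human ALK with biotinylated peptide substrate; phosphorylation detected by HTRF using Eu-labelled anti-phosphotyrosine antibody and streptavidin-allophycocyanin. IC50 from a sigmoidal fit with Hill slope.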

The target of data set [2] is TYK2 (Homo sapiens, UniProt P29597). Put plainly: TYK2 kinase inhibition (Table A1). It is filed as biochemical.
The target in data set [3] is T2, human JAK1 (a.a. 837-1142) (Homo sapiens, UniProt P23458).
T2 construct: human JAK1 (a.a. 837-1142); His tag (N); made in house; host or cells: insect cells (baculovirus)
Put plainly: In vitro JAK kinase assay (HTRF, phosphorylation of a biotinylated peptide), JAK1. It counts as biochemical. The settings on record: read-out: JAK1 IC50. Summed up:
(§1)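 Kinase activity was measured as phosphorylation of a biotinylated peptide, with ATP at 90 μM for JAK1, 30 μM for JAK2 and 3 μM for JAK3. Reactions ran 1 hr at room temperature, were stopped with EDTA plus SA-APC and Eu-Py20, and were read by HTRF after 40 minutes of antibody binding.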

Data set [4] concerns the target T3, human JAK2 (a.a. 828-1132) (Homo sapiens, UniProt O60674).
T3 construct: JAK2 (a.a. 828-1132); His tag (N); made in house; host or cells: insect cells (baculovirus)
The data set can be described thus: In vitro JAK kinase assay (HTRF, phosphorylation of a biotinylated peptide), JAK2. It counts as biochemical. Summed up: as §1

For data set [5], the target named is T4, human JAK3 (a.a. 781-1124) (Homo sapiens, UniProt P52333).
T4 construct: JAK3 (a.a. 781-1124); His tag (N); made in house; host or cells: insect cells (baculovirus)
The data set can be described thus: In vitro JAK kinase assay (HTRF, phosphorylation of a biotinylated peptide), JAK3. It is filed as biochemical. Summed up: as §1

Setting [6] is: compound at a concentration of 500 nM or 1 mM (not specified), cells shown as percentage.
Setting [7] is: compound at 500 nM or 1 mM, 90 μM ATP.
The mark [8] stands for this setting: method AA1 (90 μM ATP) or AA2 (1000 μM ATP), not stated per value.
Setting [9] is: method AA1 (30 μM ATP) or AA2 (1000 μM ATP), not stated per value.
[10] abbreviates: method AA1 (3 μM ATP) or AA2 (1000 μM ATP), not stated per value.

Sequence of TYK2 (P29597 whole entry): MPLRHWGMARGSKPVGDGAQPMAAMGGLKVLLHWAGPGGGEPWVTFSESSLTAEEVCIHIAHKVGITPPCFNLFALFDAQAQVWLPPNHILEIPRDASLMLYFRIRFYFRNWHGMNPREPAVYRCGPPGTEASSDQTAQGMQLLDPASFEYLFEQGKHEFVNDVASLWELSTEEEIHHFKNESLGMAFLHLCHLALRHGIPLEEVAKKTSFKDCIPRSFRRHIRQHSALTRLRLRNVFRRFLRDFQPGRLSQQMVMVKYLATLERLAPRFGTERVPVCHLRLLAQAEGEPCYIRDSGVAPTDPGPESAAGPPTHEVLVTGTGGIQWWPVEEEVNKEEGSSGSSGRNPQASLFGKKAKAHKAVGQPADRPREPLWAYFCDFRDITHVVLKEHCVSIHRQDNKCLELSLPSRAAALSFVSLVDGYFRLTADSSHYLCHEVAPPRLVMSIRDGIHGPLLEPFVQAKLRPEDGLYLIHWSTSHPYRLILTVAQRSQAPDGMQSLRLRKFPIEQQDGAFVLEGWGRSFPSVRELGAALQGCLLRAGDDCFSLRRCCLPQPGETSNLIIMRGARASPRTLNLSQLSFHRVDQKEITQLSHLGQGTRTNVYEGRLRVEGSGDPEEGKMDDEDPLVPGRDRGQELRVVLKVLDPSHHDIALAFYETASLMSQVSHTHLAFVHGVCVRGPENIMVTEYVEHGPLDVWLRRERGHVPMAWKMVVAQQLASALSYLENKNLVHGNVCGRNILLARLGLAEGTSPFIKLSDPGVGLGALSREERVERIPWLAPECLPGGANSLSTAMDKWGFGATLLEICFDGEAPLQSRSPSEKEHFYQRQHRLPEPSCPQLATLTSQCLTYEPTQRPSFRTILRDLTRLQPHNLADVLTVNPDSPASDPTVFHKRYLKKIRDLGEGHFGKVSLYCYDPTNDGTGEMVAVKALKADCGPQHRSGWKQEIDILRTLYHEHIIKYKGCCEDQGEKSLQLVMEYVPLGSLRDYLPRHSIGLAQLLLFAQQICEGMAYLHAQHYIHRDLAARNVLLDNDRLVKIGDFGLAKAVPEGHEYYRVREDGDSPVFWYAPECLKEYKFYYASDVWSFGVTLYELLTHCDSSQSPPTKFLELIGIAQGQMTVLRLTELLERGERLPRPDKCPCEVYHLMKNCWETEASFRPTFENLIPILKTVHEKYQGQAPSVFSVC
T3 sequence (O60674 828-1132): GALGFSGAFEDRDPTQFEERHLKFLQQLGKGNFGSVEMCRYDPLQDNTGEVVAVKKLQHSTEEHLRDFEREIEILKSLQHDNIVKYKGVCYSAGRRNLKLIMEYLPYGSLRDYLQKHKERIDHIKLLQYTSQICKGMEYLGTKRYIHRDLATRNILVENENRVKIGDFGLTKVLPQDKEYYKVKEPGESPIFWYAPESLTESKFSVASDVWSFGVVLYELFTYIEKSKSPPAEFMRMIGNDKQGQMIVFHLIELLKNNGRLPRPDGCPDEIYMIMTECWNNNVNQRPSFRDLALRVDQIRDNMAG
T1 sequence (Q9UM73 19-1620): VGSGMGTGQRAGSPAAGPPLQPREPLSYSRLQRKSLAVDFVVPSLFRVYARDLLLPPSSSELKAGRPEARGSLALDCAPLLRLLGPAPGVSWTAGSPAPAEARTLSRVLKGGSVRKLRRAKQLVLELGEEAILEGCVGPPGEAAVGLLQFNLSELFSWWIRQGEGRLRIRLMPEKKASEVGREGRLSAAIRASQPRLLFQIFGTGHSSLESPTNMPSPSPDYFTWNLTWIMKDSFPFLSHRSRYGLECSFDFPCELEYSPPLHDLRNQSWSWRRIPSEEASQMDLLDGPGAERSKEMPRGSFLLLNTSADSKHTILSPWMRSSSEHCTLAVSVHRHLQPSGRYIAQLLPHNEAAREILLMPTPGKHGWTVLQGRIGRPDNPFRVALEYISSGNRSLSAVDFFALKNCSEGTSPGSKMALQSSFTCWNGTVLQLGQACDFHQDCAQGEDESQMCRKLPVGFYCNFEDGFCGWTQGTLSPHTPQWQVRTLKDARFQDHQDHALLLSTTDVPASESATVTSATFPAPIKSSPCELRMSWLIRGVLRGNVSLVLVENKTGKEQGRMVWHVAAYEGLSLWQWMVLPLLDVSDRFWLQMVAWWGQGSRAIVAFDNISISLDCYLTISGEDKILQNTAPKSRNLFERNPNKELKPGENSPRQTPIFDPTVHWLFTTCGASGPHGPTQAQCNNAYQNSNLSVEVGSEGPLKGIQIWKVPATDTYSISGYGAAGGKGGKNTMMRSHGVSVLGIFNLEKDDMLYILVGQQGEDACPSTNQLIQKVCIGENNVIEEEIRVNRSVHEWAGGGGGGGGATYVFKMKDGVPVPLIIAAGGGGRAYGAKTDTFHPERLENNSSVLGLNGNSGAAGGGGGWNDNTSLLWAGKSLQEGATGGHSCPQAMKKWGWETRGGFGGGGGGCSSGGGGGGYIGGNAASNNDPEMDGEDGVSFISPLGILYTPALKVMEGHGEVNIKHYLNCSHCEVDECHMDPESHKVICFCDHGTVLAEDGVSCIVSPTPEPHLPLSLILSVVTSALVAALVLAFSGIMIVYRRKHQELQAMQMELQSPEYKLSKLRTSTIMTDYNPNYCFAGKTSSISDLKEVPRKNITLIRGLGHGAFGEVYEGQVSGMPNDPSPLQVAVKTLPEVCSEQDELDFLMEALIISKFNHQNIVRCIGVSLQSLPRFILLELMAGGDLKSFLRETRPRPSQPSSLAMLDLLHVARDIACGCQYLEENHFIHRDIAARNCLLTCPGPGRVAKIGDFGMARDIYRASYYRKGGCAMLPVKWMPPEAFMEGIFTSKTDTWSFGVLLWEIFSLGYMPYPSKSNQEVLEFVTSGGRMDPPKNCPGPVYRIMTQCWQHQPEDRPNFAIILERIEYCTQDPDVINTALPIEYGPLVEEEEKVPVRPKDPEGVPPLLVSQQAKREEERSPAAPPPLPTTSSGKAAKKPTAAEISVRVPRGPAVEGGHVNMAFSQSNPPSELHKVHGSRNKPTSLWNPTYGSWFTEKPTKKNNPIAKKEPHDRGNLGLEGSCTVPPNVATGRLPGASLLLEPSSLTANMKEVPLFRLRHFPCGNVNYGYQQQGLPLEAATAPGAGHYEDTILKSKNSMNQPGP
T2 sequence (P23458 849-1154): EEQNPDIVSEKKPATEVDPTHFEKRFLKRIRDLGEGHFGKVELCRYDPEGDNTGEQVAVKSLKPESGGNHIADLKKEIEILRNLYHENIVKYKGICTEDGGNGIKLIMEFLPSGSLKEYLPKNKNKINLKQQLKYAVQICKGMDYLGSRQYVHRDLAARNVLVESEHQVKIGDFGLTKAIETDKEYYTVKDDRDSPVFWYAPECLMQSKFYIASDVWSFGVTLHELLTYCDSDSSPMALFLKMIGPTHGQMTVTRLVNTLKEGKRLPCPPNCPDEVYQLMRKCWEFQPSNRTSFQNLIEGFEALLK
T4 sequence (P52333 781-1124): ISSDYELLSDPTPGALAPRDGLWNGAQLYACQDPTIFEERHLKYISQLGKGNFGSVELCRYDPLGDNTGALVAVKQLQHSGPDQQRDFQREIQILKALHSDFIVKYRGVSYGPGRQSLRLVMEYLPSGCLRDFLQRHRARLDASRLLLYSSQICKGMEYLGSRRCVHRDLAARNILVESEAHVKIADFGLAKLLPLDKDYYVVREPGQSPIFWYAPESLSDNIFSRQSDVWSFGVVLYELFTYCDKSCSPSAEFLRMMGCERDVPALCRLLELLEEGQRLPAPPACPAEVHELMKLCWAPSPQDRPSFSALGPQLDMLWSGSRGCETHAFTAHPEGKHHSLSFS

Take `Clc1cnc2nc1Nc1cccc(c1)/C=C\c1cncc(c1)N2` [Example C20, (14Z)-6-Chloro-2,4,8,18,22-pentaazatetracyclo[14.3.1.1(3,7).1(9,13)]docosa-1(20),3(22),4,6,9(21),10,12,14,16,18-decaene bis(trifluoroacetate)]: the “ALK % inhibition at a concentration of 500 nM or 1 mM” value in data set [1] (compound at a concentration of 500 nM or 1 mM) amounted to 26%. Moreover, the IC50 in data set [2] is 4.4 nM; in data set [3] it was 2.9 nM; in data set [4], 2.3 nM; in data set [5] it was 13 nM. The compound further displayed a ring closure, yield after HPLC (from Nc1cncc(/C=C\c2cccc(Nc3nc(Cl)ncc3Cl)c2)c1, cn_pd bond, 13-membered ring, Pd(OAc)2/Xantphos/Cs2CO3/Et3N, 1,4-dioxane, 70.0 mM, 150.0 °C, 1.0 h) of 30%.
In the case of `Clc1cnc2nc1Nc1cccc(c1)CCOc1cccc(c1)N2` [Example D5, 6-Chloro-16-oxa-2,4,8,23-tetraazatetracyclo[15.3.1.1(3,7).1(9,13)]tricosa-1(21),3(23),4,6,9(22),10,12,17,19-nonaene trifluoroacetate], the IC50 in data set [1] (Table D1, 90 μM ATP) is 509 nM; in data set [2] (Table D1), 12 nM; in data set [3] (Table D1), 30 nM; in data set [4] (Table D1) it was 15 nM; in data set [5] (Table D1), 36 nM. Where the note is “from OCCc1cccc(Nc2nc(Nc3cccc(O)c3)ncc2Cl)c1, ether bond, 14-membered ring, PPh3/DIAD, THF, 8.5 mM, 25.0 °C, 2.0 h”, this compound gave a ring closure, yield after HPLC of 20%.
On to `Nc1ccc2cc1CCc1cncc(c1)Nc1ncc(F)c(n1)N2`, for which, where the note is “from Nc1cncc(CCc2cc(Nc3nc(Cl)ncc3F)ccc2N)c1, cn_pd bond, 13-membered ring, Pd(OAc)2/Xantphos/Cs2CO3/Et3N, 1,4-dioxane, 158.0 mM, 160.0 °C, 0.33 h”, the ring closure, yield after HPLC was found to be 8%.
Consider `Cc1cnc2nc1Nc1ccc(N)c(c1)CCc1cncc(c1)N2` [Example C50, 6-Methyl-2,4,8,18,22-pentaazatetracyclo[14.3.1.1(3,7).1(9,13)]docosa-1(20),3(22),4,6,9(21),10,12,16,18-nonaen-12-amine tris(trifluoroacetate)], for which the IC50 in data set [2] is 80 nM; in data set [3], 33 nM; in data set [4], 111 nM; in data set [5], more than 400 nM. In addition, the ring closure, yield after HPLC (from Cc1cnc(Cl)nc1Nc1ccc(N)c(CCc2cncc(N)c2)c1, cn_pd bond, 13-membered ring, Pd(OAc)2/Xantphos/Cs2CO3/Et3N, 1,4-dioxane, 135.0 mM, 160.0 °C, 0.33 h) was 50%.
On to `CC(C)NC(=O)NCCNC(=O)Nc1ccc2cc1CCc1cccc(c1)Nc1ncc(Cl)c(n1)N2` [Example B188, N-[6-Chloro-2,4,8,22-tetraazatetracyclo[14.3.1.1(3,7).1(9,13)]docosa-1(20),3(22),4,6,9(21),10,12,16,18-nonaen-12-yl]-N′-(2-{[(isopropylamino)carbonyl]amino}ethyl)urea trifluoroacetate], for which, in data set [1] (setting [6]), the “ALK % of inhibition at a concentration of 500 nM or 1 mM” value (“ALK % of inhibition” for short) amounted to 24%. The IC50 in data set [2] (Table B1) worked out at 13 nM; in data set [3] (Table B1), 4 nM; in data set [4] (Table B1) it was 7.7 nM; in data set [5] (Table B1), 52 nM.
With `CCNC(=O)N1CCC(CC(=O)Nc2ccc3cc2CCc2cccc(c2)Nc2ncc(Cl)c(n2)N3)CC1` [Example A57, 4-(2-{[6-Chloro-2,4,8,22-tetraazatetracyclo[14.3.1.1(3,7).1(9,13)]docosa-1(20),3(22),4,6,9(21),10,12,16,18-nonaen-12-yl]amino}-2-oxoethyl)-N-ethylpiperidine-1-carboxamide trifluoroacetate], the “ALK % of inhibition” value in data set [1] (setting [7]) is 24%. The half-inhibitory concentration (IC50) in data set [2] came out at 8.8 nM; in data set [3] (setting [8]), 5.5 nM; in data set [4] (setting [9]), 7.3 nM; in data set [5] (setting [10]), 60 nM.
For `O=C(CC1CCN(C(=O)c2cnoc2C2CC2)CC1)Nc1ccc2cc1CCc1cncc(c1)Nc1ncc(Cl)c(n1)N2` [Example A213, N-[6-Chloro-2,4,8,18,22-pentaazatetracyclo[14.3.1.1(3,7).1(9,13)]docosa-1(20),3(22),4,6,9(21),10,12,16,18-nonaen-12-yl]-2-{1-[(5-cyclopropylisoxazol-4-yl)carbonyl]piperidin-4-yl}acetamide bis(trifluoroacetate)] the same measures were 27%, more than 200 nM, 58 nM, more than 200 nM and more than 200 nM.
Consider `CC(C)(C)OC(=O)N1CCCC(NC(=O)Nc2ccc3cc2CCc2cccc(c2)Nc2ncc(Cl)c(n2)N3)C1` (stereo not drawn) [Example B237, tert-Butyl 3-[({[6-chloro-2,4,8,22-tetraazatetracyclo[14.3.1.1(3,7).1(9,13)]docosa-1(20),3(22),4,6,9(21),10,12,16,18-nonaen-12-yl]amino}carbonyl)amino]piperidine-1-carboxylate], for which the “ALK % of inhibition” value in data set [1] (setting [6]) worked out at 6.2%. Moreover, the IC50 in data set [2] (Table B1) came out at 16 nM; in data set [3] (Table B1), 7.9 nM; in data set [4] (Table B1), 18 nM; in data set [5] (Table B1) it was 122 nM.
With `Cc1cc(C(=O)N2CCC(CC(=O)Nc3ccc4cc3CCc3cccc(c3)Nc3ncc(Cl)c(n3)N4)CC2)no1` [Example A86, N-[6-Chloro-2,4,8,22-tetraazatetracyclo[14.3.1.1(3,7).1(9,13)]docosa-1(20),3(22),4,6,9(21),10,12,16,18-nonaen-12-yl]-2-{1-[(5-methylisoxazol-3-yl)carbonyl]piperidin-4-yl}acetamide trifluoroacetate], the “ALK % of inhibition” value in data set [1] (setting [7]) is on record as 32%. Moreover, the concentration for half-maximal inhibition (IC50) was 1.5 nM in data set [2], 0.8 nM in data set [3] (setting [8]), 2.2 nM in data set [4] (setting [9]) and 29 nM in data set [5] (setting [10]).
For `CCC(=O)N1CCC(CC(=O)Nc2ccc3cc2CCc2cncc(c2)Nc2ncc(Cl)c(n2)N3)CC1` [Example A104, N-[6-Chloro-2,4,8,18,22-pentaazatetracyclo[14.3.1.1(3,7).1(9,13)]docosa-1(20),3(22),4,6,9(21),10,12,16,18-nonaen-12-yl]-2-(1-propionylpiperidin-4-yl)acetamide bis(trifluoroacetate)] the same measures were 26%, 4.4 nM, 81 nM, 8.3 nM and 148 nM.
On to `Clc1cnc2nc1Nc1cccc(c1)CCCc1cccc(c1)N2` [Example A4, 6-Chloro-2,4,8,23-tetraazatetracyclo[15.3.1.1(3,7).1(9,13)]tricosa-1(21),3(23),4,6,9(22),10,12,17,19-nonaene], for which the IC50 in data set [1] (90 μM ATP) is 925 nM; in data set [2], more than 100 nM; in data set [3] (setting [8]), 87 nM; in data set [4] (setting [9]), 54 nM; in data set [5] (setting [10]), 45 nM.
As for `Cc1cc(C(=O)N2CCC(NC(=O)Nc3ccc4cc3CCc3cccc(c3)Nc3ncc(Cl)c(n3)N4)CC2)no1` [Example B263, N-[6-Chloro-2,4,8,22-tetraazatetracyclo[14.3.1.1(3,7).1(9,13)]docosa-1(20),3(22),4,6,9(21),10,12,16,18-nonaen-12-yl]-N′-{1-[(5-methylisoxazol-3-yl)carbonyl]piperidin-4-yl}urea trifluoroacetate], in data set [1] (setting [6]), the “ALK % of inhibition” value is given as 29%. The IC50 in data set [2] (Table B1) was 22 nM; in data set [3] (Table B1), 6.7 nM; in data set [4] (Table B1) it was 9.3 nM; in data set [5] (Table B1), 110 nM.
As for `OCc1ccc2cc1CCc1cccc(c1)Nc1ncc(Cl)c(n1)N2` [Example B23, [6-Chloro-2,4,8,22-tetraazatetracyclo[14.3.1.1(3,7).1(9,13)]docosa-1(20),3(22),4,6,9(21),10,12,16,18-nonaen-12-yl]methanol trifluoroacetate], the “ALK % of inhibition” value in data set [1] (setting [6]) turned out to be 75%. For the same compound, the IC50 in data set [2] (Table B1) is 1.8 nM; in data set [3] (Table B1), 0.2 nM; in data set [4] (Table B1), 0.8 nM; in data set [5] (Table B1), 1.2 nM.
